# Results published in article PMC5218480 (PLoS ONE, 2017).
# Test system: MV-4-11 cells
# Test: Gene expression microarray analysis (Affymetrix PrimeView) and GSEA
# Type: cell-based, human
# Design: RFU PODN (11730768_x_at) / Fold change /veh PODN (11730768_x_at) / RFU LINC00158 (11744669_a_at) / Fold change /veh LINC00158 (11744669_a_at) / RFU DUSP10 (11751237_a_at) / Fold change /veh DUSP10 (11751237_a_at) / RFU ID3 (11757404_x_at) / Fold change /veh ID3 (11757404_x_at) / RFU PLEKHG5 (11737974_s_at) / Fold change /veh PLEKHG5 (11737974_s_at) / RFU LRRC4B (11730491_at) / Fold change /veh LRRC4B (11730491_at) / RFU GIMAP4 (11747438_a_at) / Fold change /veh GIMAP4 (11747438_a_at) / RFU KRT8 (11758183_x_at) / Fold change /veh KRT8 (11758183_x_at) / RFU CNN1 (11734310_a_at) / Fold change /veh CNN1 (11734310_a_at) / RFU VPS37D (11726825_at) / Fold change /veh VPS37D (11726825_at) / RFU C10orf10 (11716522_x_at) / Fold change /veh C10orf10 (11716522_x_at) / RFU KIR2DL2 /// KIR2DL4 /// KIR2DL5A /// KIR2DL5B /// KIR2DS1 /// KIR2DS2 /// KIR2DS3 /// KIR2DS4 /// KIR3DL3 /// KIR3DL3 /// KIR3DS1 (11738374_at) / Fold change /veh KIR2DL2 /// KIR2DL4 /// KIR2DL5A /// KIR2DL5B /// KIR2DS1 /// KIR2DS2 /// KIR2DS3 /// KIR2DS4 /// KIR3DL3 /// KIR3DL3 /// KIR3DS1 (11738374_at) / RFU C1QL1 (11718748_at) / Fold change /veh C1QL1 (11718748_at) / RFU TMPRSS4 (11747572_a_at) / Fold change /veh TMPRSS4 (11747572_a_at) / RFU HAMP (11756126_x_at) / Fold change /veh HAMP (11756126_x_at) / RFU RNFT2 (11725882_a_at) / Fold change /veh RNFT2 (11725882_a_at) / RFU NR4A2 (11747474_a_at) / Fold change /veh NR4A2 (11747474_a_at) / RFU ABCC12 (11746883_a_at) / Fold change /veh ABCC12 (11746883_a_at) / RFU TMEM136 (11760407_x_at) / Fold change /veh TMEM136 (11760407_x_at) / RFU CLDN22 /// WWC2 (11732394_at) / Fold change /veh CLDN22 /// WWC2 (11732394_at) / RFU HLA-DPB1 (11760878_x_at) / Fold change /veh HLA-DPB1 (11760878_x_at) / RFU SPINT1 (11716480_a_at) / Fold change /veh SPINT1 (11716480_a_at) / RFU GAP43 (11754022_s_at) / Fold change /veh GAP43 (11754022_s_at) / RFU A4GNT (11735810_at) / Fold change /veh A4GNT (11735810_at) / RFU PRB3 (11715151_x_at) / Fold change /veh PRB3 (11715151_x_at) / RFU TUBB4B (11761932_at) / Fold change /veh TUBB4B (11761932_at) / RFU CAPN14 (11732068_a_at) / Fold change /veh CAPN14 (11732068_a_at) / RFU TMCC2 (11721928_a_at) / Fold change /veh TMCC2 (11721928_a_at) / RFU IRGQ (11745062_a_at) / Fold change /veh IRGQ (11745062_a_at) / RFU FAM174B (11720279_a_at) / Fold change /veh FAM174B (11720279_a_at) / RFU TMPRSS4 (11748680_a_at) / Fold change /veh TMPRSS4 (11748680_a_at) / RFU FAM212B (11763350_a_at) / Fold change /veh FAM212B (11763350_a_at) / RFU PLEKHG5 (11743358_a_at) / Fold change /veh PLEKHG5 (11743358_a_at) / RFU ZSCAN30 (11745921_a_at) / Fold change /veh ZSCAN30 (11745921_a_at) / RFU CMKLR1 (11741424_a_at) / Fold change /veh CMKLR1 (11741424_a_at) / RFU LOC101060620 /// MAPK8IP1 (11723275_at) / Fold change /veh LOC101060620 /// MAPK8IP1 (11723275_at) / RFU SPTSSB (11747773_x_at) / Fold change /veh SPTSSB (11747773_x_at) / RFU PRSS12 (11739890_at) / Fold change /veh PRSS12 (11739890_at) / RFU BIN1 (11741810_x_at) / Fold change /veh BIN1 (11741810_x_at) / RFU WNT11 (11732464_a_at) / Fold change /veh WNT11 (11732464_a_at) / RFU C10orf10 (11716521_a_at) / Fold change /veh C10orf10 (11716521_a_at) / RFU C5orf56 (11738089_at) / Fold change /veh C5orf56 (11738089_at) / RFU CYB561 (11721691_x_at) / Fold change /veh CYB561 (11721691_x_at) / RFU ANKRD19P (11752326_a_at) / Fold change /veh ANKRD19P (11752326_a_at) / RFU OR2T12 /// OR2T33 /// OR2T8 (11738714_s_at) / Fold change /veh OR2T12 /// OR2T33 /// OR2T8 (11738714_s_at) / RFU VCAN (11748164_a_at) / Fold change /veh VCAN (11748164_a_at) / RFU JSRP1 (11732532_at) / Fold change /veh JSRP1 (11732532_at) / RFU KRTAP10-11 (11738290_x_at) / Fold change /veh KRTAP10-11 (11738290_x_at) / RFU MYO3A (11730013_a_at) / Fold change /veh MYO3A (11730013_a_at) / RFU EBF3 (11725865_a_at) / Fold change /veh EBF3 (11725865_a_at) / RFU CAMK2N1 (11719241_x_at) / Fold change /veh CAMK2N1 (11719241_x_at) / RFU C5orf56 (11738088_a_at) / Fold change /veh C5orf56 (11738088_a_at) / RFU OLFML3 (11715873_a_at) / Fold change /veh OLFML3 (11715873_a_at) / RFU LOC100653217 /// NTM (11731650_a_at) / Fold change /veh LOC100653217 /// NTM (11731650_a_at) / RFU MAPK11 (11762145_a_at) / Fold change /veh MAPK11 (11762145_a_at) / RFU FIZ1 (11724087_x_at) / Fold change /veh FIZ1 (11724087_x_at) / RFU OASL (11726364_x_at) / Fold change /veh OASL (11726364_x_at) / RFU SOX15 (11748057_x_at) / Fold change /veh SOX15 (11748057_x_at) / RFU CD79A (11719716_a_at) / Fold change /veh CD79A (11719716_a_at) / RFU HIST1H1D (11736915_at) / Fold change /veh HIST1H1D (11736915_at) / RFU CASKIN2 (11723855_a_at) / Fold change /veh CASKIN2 (11723855_a_at) / RFU LOC730098 (11760151_x_at) / Fold change /veh LOC730098 (11760151_x_at) / RFU OR4N2 (11742367_at) / Fold change /veh OR4N2 (11742367_at) / RFU PRRT2 (11749266_a_at) / Fold change /veh PRRT2 (11749266_a_at) / RFU SNX32 (11753110_a_at) / Fold change /veh SNX32 (11753110_a_at) / RFU CDHR5 (11726645_a_at) / Fold change /veh CDHR5 (11726645_a_at) / RFU RCAN1 (11760418_a_at) / Fold change /veh RCAN1 (11760418_a_at) / RFU FAM167A (11723789_a_at) / Fold change /veh FAM167A (11723789_a_at) / RFU FAM26E (11764081_at) / Fold change /veh FAM26E (11764081_at) / RFU ISYNA1 (11749810_s_at) / Fold change /veh ISYNA1 (11749810_s_at) / RFU ACY1 (11761880_at) / Fold change /veh ACY1 (11761880_at) / RFU 11764098_at / Fold change /veh 11764098_at / RFU SAMD14 (11745864_x_at) / Fold change /veh SAMD14 (11745864_x_at) / RFU NPB (11741838_a_at) / Fold change /veh NPB (11741838_a_at) / RFU TMPRSS6 (11731388_a_at) / Fold change /veh TMPRSS6 (11731388_a_at) / RFU KRTAP10-2 (11738614_at) / Fold change /veh KRTAP10-2 (11738614_at) / RFU ARHGAP8 /// PRR5-ARHGAP8 (11727945_x_at) / Fold change /veh ARHGAP8 /// PRR5-ARHGAP8 (11727945_x_at) / RFU KRTAP5-7 /// NADSYN1 (11734609_at) / Fold change /veh KRTAP5-7 /// NADSYN1 (11734609_at) / RFU RASL12 (11751679_a_at) / Fold change /veh RASL12 (11751679_a_at) / RFU CDKN2B (11736163_a_at) / Fold change /veh CDKN2B (11736163_a_at) / RFU PRF1 (11729649_at) / Fold change /veh PRF1 (11729649_at) / RFU, ZNF638 /// ZNF638-IT1 / Fold change vs veh, ZNF638 /// ZNF638-IT1 / RFU, PANK3 / Fold change vs veh, PANK3 / RFU, SH3YL1 / Fold change vs veh, SH3YL1 / RFU, ZEB2 / Fold change vs veh, ZEB2 / RFU, NRIP1 / Fold change vs veh, NRIP1 / RFU, PTTG1IP / Fold change vs veh, PTTG1IP / RFU, CAPN2 / Fold change vs veh, CAPN2 / RFU, MED14 / Fold change vs veh, MED14 / RFU, SNORA58 / Fold change vs veh, SNORA58 / RFU, C1orf63 / Fold change vs veh, C1orf63 / RFU, LRRFIP1 / Fold change vs veh, LRRFIP1 / RFU, NDUFAF7 / Fold change vs veh, NDUFAF7 / RFU, SLC12A2 / Fold change vs veh, SLC12A2 / RFU, IBTK / Fold change vs veh, IBTK / RFU, ESF1 / Fold change vs veh, ESF1 / Fold change vs veh, TMEM50B / RFU, TAOK1 / Fold change vs veh, TAOK1 / RFU, ACBD3 / Fold change vs veh, ACBD3 / RFU, TMA16 / Fold change vs veh, TMA16 / RFU, RWDD3 / Fold change vs veh, RWDD3 / RFU, BCAT1 / Fold change vs veh, BCAT1 / RFU, EDEM3 / Fold change vs veh, EDEM3 / RFU, TMEM33 / Fold change vs veh, TMEM33 / RFU, WDR75 / Fold change vs veh, WDR75 / RFU, AHCTF1 / Fold change vs veh, AHCTF1 / RFU, TFRC / Fold change vs veh, TFRC / RFU, ZDHHC17 / Fold change vs veh, ZDHHC17 / RFU, NOM1 / Fold change vs veh, NOM1 / RFU, ARL8B / Fold change vs veh, ARL8B / RFU, ZBTB11 / Fold change vs veh, ZBTB11 / RFU, TAMM41 / Fold change vs veh, TAMM41 / RFU, KIAA1704 /// LOC100996395 / Fold change vs veh, KIAA1704 /// LOC100996395 / RFU, ING1 / Fold change vs veh, ING1 / RFU, TRMT61B / Fold change vs veh, TRMT61B / RFU, FUBP3 / Fold change vs veh, FUBP3 / RFU, TP53 / Fold change vs veh, TP53 / RFU, TNKS2 / Fold change vs veh, TNKS2 / RFU, ZFP14 / Fold change vs veh, ZFP14 / RFU, ACTR2 / Fold change vs veh, ACTR2 / RFU, PPP3R1 / Fold change vs veh, PPP3R1 / RFU, PIK3R1 / Fold change vs veh, PIK3R1 / RFU, HNRNPA1 / Fold change vs veh, HNRNPA1 / RFU, RNF170 / Fold change vs veh, RNF170 / RFU, ZNF28 / Fold change vs veh, ZNF28 / RFU, RNGTT / Fold change vs veh, RNGTT / RFU, OGT / Fold change vs veh, OGT / RFU, BRD1 / Fold change vs veh, BRD1 / RFU, MARS / Fold change vs veh, MARS / RFU, ZNF655 / Fold change vs veh, ZNF655 / RFU, FAHD1 / Fold change vs veh, FAHD1 / RFU, BDP1 / Fold change vs veh, BDP1 / RFU, LRRCC1 / Fold change vs veh, LRRCC1 / RFU, ARID1A / Fold change vs veh, ARID1A / RFU, ZNF146 / Fold change vs veh, ZNF146 / RFU, ZNF330 / Fold change vs veh, ZNF330 / RFU, GPN3 / Fold change vs veh, GPN3 / RFU, C9orf123 / Fold change vs veh, C9orf123 / RFU, N4BP2L2 / Fold change vs veh, N4BP2L2 / RFU, ARFIP1 / Fold change vs veh, ARFIP1 / RFU, FAM179B / Fold change vs veh, FAM179B / RFU, BCL10 / Fold change vs veh, BCL10 / RFU, UHRF1BP1L / Fold change vs veh, UHRF1BP1L / RFU, BET1 / Fold change vs veh, BET1 / RFU, CNOT2 / Fold change vs veh, CNOT2 / RFU, ZNF268 / Fold change vs veh, ZNF268 / Fold change vs veh, ZNF507 / RFU, DGCR2 / Fold change vs veh, DGCR2 / RFU, WDSUB1 / Fold change vs veh, WDSUB1 / Fold change vs veh, HSP90B1 /// MIR3652 / RFU, ADSS / Fold change vs veh, ADSS / RFU, GK / Fold change vs veh, GK / RFU, ZNF148 / Fold change vs veh, ZNF148 / RFU, TAF9 / Fold change vs veh, TAF9 / RFU, SLC1A5 / Fold change vs veh, SLC1A5 / RFU, SLMO2 / Fold change vs veh, SLMO2 / RFU, ABCC4 / Fold change vs veh, ABCC4 / RFU, LOC101060439 /// RAP1B / Fold change vs veh, LOC101060439 /// RAP1B / RFU, RFX7 / Fold change vs veh, RFX7 / RFU, GTPBP10 / Fold change vs veh, GTPBP10 / RFU, CNEP1R1 / Fold change vs veh, CNEP1R1 / RFU, BIVM-ERCC5 /// ERCC5 / Fold change vs veh, BIVM-ERCC5 /// ERCC5 / RFU, ILF3 / Fold change vs veh, ILF3 / RFU 11762660_at / Fold change /veh 11762660_at / RFU VCAN (11757783_s_at) / Fold change /veh VCAN (11757783_s_at) / RFU DDX43 (11728927_at) / Fold change /veh DDX43 (11728927_at) / RFU KRT8 (11758188_x_at) / Fold change /veh KRT8 (11758188_x_at) / RFU NKD1 (11759106_at) / Fold change /veh NKD1 (11759106_at) / RFU SRD5A1 (11742802_a_at) / Fold change /veh SRD5A1 (11742802_a_at) / RFU TPSAB1 /// TPSB2 (11721975_s_at) / Fold change /veh TPSAB1 /// TPSB2 (11721975_s_at) / RFU GSTM3 (11746129_a_at) / Fold change /veh GSTM3 (11746129_a_at) / RFU IL23R (11737362_x_at) / Fold change /veh IL23R (11737362_x_at) / RFU TMEM51 (11727254_a_at) / Fold change /veh TMEM51 (11727254_a_at) / RFU PIWIL2 (11732686_x_at) / Fold change /veh PIWIL2 (11732686_x_at) / RFU ORM1 (11744905_x_at) / Fold change /veh ORM1 (11744905_x_at) / RFU CCDC152 (11743942_at) / Fold change /veh CCDC152 (11743942_at) / RFU ECM1 (11717891_a_at) / Fold change /veh ECM1 (11717891_a_at) / RFU IL23R (11748794_a_at) / Fold change /veh IL23R (11748794_a_at) / RFU TNFAIP8L3 (11732012_x_at) / Fold change /veh TNFAIP8L3 (11732012_x_at) / RFU MBOAT4 (11741988_at) / Fold change /veh MBOAT4 (11741988_at) / RFU 11764193_at / Fold change /veh 11764193_at / RFU TMEM53 (11763286_at) / Fold change /veh TMEM53 (11763286_at) / RFU MAGEB2 (11727129_at) / Fold change /veh MAGEB2 (11727129_at) / RFU TMEM200A (11744735_a_at) / Fold change /veh TMEM200A (11744735_a_at) / RFU CCDC152 (11751479_a_at) / Fold change /veh CCDC152 (11751479_a_at) / RFU FAM211A (11726209_a_at) / Fold change /veh FAM211A (11726209_a_at) / RFU RGS16 (11746705_a_at) / Fold change /veh RGS16 (11746705_a_at) / RFU VCAN (11755009_s_at) / Fold change /veh VCAN (11755009_s_at) / RFU RHOB (11743442_s_at) / Fold change /veh RHOB (11743442_s_at) / RFU RGS16 (11720943_a_at) / Fold change /veh RGS16 (11720943_a_at) / RFU RGS16 (11720944_at) / Fold change /veh RGS16 (11720944_at) / RFU, VPS4B / Fold change vs veh, VPS4B / RFU, CREB1 / Fold change vs veh, CREB1 / RFU, DNAJC13 / Fold change vs veh, DNAJC13 / RFU, GNAQ / Fold change vs veh, GNAQ / RFU, CDK5R1 / Fold change vs veh, CDK5R1 / RFU, ZRANB3 / Fold change vs veh, ZRANB3 / RFU, CUL4A / Fold change vs veh, CUL4A / RFU, CCNY / Fold change vs veh, CCNY / RFU, UFL1 / Fold change vs veh, UFL1 / RFU, COG3 / Fold change vs veh, COG3 / RFU, DIAPH2 / Fold change vs veh, DIAPH2 / RFU, SKA2 / Fold change vs veh, SKA2 / RFU, AFF3 / Fold change vs veh, AFF3 / RFU, LMF1 / Fold change vs veh, LMF1 / RFU, IPO11 / Fold change vs veh, IPO11 / RFU, DFFB / Fold change vs veh, DFFB / RFU, FOXP1 / Fold change vs veh, FOXP1 / RFU, CARD8 / Fold change vs veh, CARD8 / RFU, STRN3 / Fold change vs veh, STRN3 / RFU, ADK / Fold change vs veh, ADK / RFU, RASSF2 / Fold change vs veh, RASSF2 / RFU, WIPF1 / Fold change vs veh, WIPF1 / RFU, LARP1B / Fold change vs veh, LARP1B / RFU, RASA1 / Fold change vs veh, RASA1 / RFU, RB1 / Fold change vs veh, RB1 / RFU, PPFIA1 / Fold change vs veh, PPFIA1 / RFU, MAT2A / Fold change vs veh, MAT2A / RFU, CCT5 / Fold change vs veh, CCT5 / RFU, WDR92 / Fold change vs veh, WDR92 / RFU, CUX1 / Fold change vs veh, CUX1 / RFU, TTC7A / Fold change vs veh, TTC7A / RFU, TMEM135 / Fold change vs veh, TMEM135 / RFU, DEPTOR / Fold change vs veh, DEPTOR / RFU, CPM / Fold change vs veh, CPM / RFU, DNAJB6 / Fold change vs veh, DNAJB6 / RFU, CACNA2D3 / Fold change vs veh, CACNA2D3 / RFU, DTX4 / Fold change vs veh, DTX4 / RFU, TFCP2 / Fold change vs veh, TFCP2 / RFU, GMCL1 /// GMCL1P1 / Fold change vs veh, GMCL1 /// GMCL1P1 / RFU, AEBP2 / Fold change vs veh, AEBP2 / RFU, SNHG1 /// SNORD22 /// SNORD25 /// SNORD26 /// SNORD27 /// SNORD28 /// SNORD29 /// SNORD31 / Fold change vs veh, SNHG1 /// SNORD22 /// SNORD25 /// SNORD26 /// SNORD27 /// SNORD28 /// SNORD29 /// SNORD31 / Fold change (Aza/veh), C12orf56 (ProbeSet 11735607_a_at) / Fold change (ACY-1035/veh), C12orf56 (ProbeSet 11735607_a_at) / Fold change (Aza/veh), FGFR1OP (ProbeSet 11751329_s_at) / Fold change (ACY-1035/veh), FGFR1OP (ProbeSet 11751329_s_at) / Fold change (Aza/veh), VPS36 (ProbeSet 11739960_a_at) / Fold change (ACY-1035/veh), VPS36 (ProbeSet 11739960_a_at) / RFU SYPL1 (11715823_x_at) / Fold change /veh SYPL1 (11715823_x_at) / RFU IGFBP7 (11715501_s_at) / Fold change /veh IGFBP7 (11715501_s_at) / RFU REEP3 (11722064_at) / Fold change /veh REEP3 (11722064_at) / RFU IGLL1 (11728026_x_at) / Fold change /veh IGLL1 (11728026_x_at): dose or concentration left out as unconfirmed
# Conditions: ProbeSet 11759095_at; LIST D
smiles,measurement,value
Nc1ncn([C@@H]2O[C@H](CO)[C@@H](O)[C@H]2O)c(=O)n1 [azacitidine],"Fold change vs veh, GNAQ",0.81
